Data from patent US5932623A, “Process for the production of fruit polyphenols from unripe rosaceae fruit” (The Nikka Whisky Distilling Co., Ltd.,, priority 1993, dated 1999).
Where two headings read alike, the source gives them in different places.

Key:
[1] = Test method for antioxidative activity (peroxide formation from linolic acid, iron rhodanide method); settings: compound added at 2 μM/g (linolic acid); one week after addition; FIG. 4
Description: 5 ml of a base solution (ethanol containing 4% of linolic acid) was mixed with 4 ml of a phosphate buffer solution (pH=7.0) and 1 ml of a sample solution in a tightly stoppered test tube. The test tube was kept in a 50° C. thermostat under light shielding. Also kept under the same conditions were a test tube (control) containing ethanol in place of linolic acid and a test tube (blank) containing the sample solvent in place of the sample.
During the storage period, the reaction mixture was sampled with the lapse of time to quantitatively determine the amount of peroxide formed by the isothiocyanate method (the iron rhodanide method).

[2] = test system: Salmonella typhimurium TA 98 or TA 100; test: Antimutagenic activity, modified Ames method with S 9-mix; type: cell-based; settings: amount per plate
Description: In this Example, antimutagenic activity was measured by modifying the ames method (Mutation Research, vol. 31, p. 347, 1975).
An antimutagenic compound [benzo(a)pyrene or Trp-P-2] solution was mixed with a phosphate buffer solution, a sample solution, S 9-mix and a salmonella (a solution obtained by culturing Salmonella typhimurium TA 98 or TA 100 overnight). The mixture was cultured at 37° C. for 2 days. The number of the resulting colonies was counted. The amount of each polyphenol used was shown based on a scale expressed in geometric progression, between 1 and 300 μg/plate. Antimutagenic activity was calculated using the following formula: […]
antimutagenic activity (%)={(C-B)-(S-B)}).div.(C-B)×100 wherein S: number of colonies of test solution
C: number of colonies of control wherein water is used in place of the sample, and B: number of colonies of blank wherein water is used in place of the sample and the mutagenic com pound.

[3] = target: T1, ACE (angiotensin I converting enzyme) (Homo sapiens, UniProt P12821); test: Test for ACE-inhibiting activity (commercial ACE, Bz-Gly-His-Leu substrate, fluorescence); type: biochemical
T1 construct: purchased
Description: The test for ACE-inhibiting activity was conducted by an ordinary method.
The ACE-inhibiting activity of the sample solution was expressed by the following formula: […]
where S: the fluorescent intensity of test solution,
C: the fluorescent intensity of comparative solution wherein water was used in place of the sample,
SB : the fluorescent intensity of blank for S (the blank contained water in place of the enzyme), and
CB : the fluorescent intensity of blank for C (the blank contained water in place of the enzyme).

[4] = target: T2, GTase (glucosyltransferase) of S. sobrinus (Streptococcus downei, UniProt P27470); test: Test for GTase-inhibiting activity (insoluble glucan formation, turbidity at 550 nm); type: biochemical, Streptococcus sobrinus ATCC 33478; settings: for GTase-inhibiting activity (in words): FIG. 17 and 18
T2 construct: Centrifugation was conducted to remove bacterial cells and obtain a supernatant; made in house; host or cells: S. sobrinus culture supernatant (native secreted enzyme, ammonium sulfate and hydroxyapatite purified)
Description: S. sobrinus was cultured in a TTY medium [Agric. Biol. Chem., 54 (11), pp. 2925-2929, 1990] at 37° C. for 18 hours. Centrifugation was conducted to remove bacterial cells and obtain a supernatant. To the supernatant was added ammonium sulfate to 50% saturation. Then, centrifugation was conducted to recover the resulting precipitate. The precipitate was redissolved in a 0.05 M phosphate buffer solution (pH 6.5). The resulting solution was dialyzed with the same buffer solution. The GTase in the dialyzate was purified and removed by hydroxyapatite chromatography. The GTase (capable of forming insoluble glucan) was eluted with an about 0.4 M phosphate buffer solution. The GTase-containing elute was used for the following test.
A purified GTase solution and a sample solution were added to 1 ml of a substrate solution [a 0.1 M phosphate buffer solution (pH 6.5) containing 2% of sucrose, 0.1% of sodium azide and 40 μM of dextran T10]. Water was added for dilution to make the total volume 2 ml. The resulting solution was subjected to a reaction at 37° C. for 18 hours. The amount of insoluble glucan formed by the reaction was measured as a turbidity expressed by an absorbance at 550 nm, and the formation ratio (%) of insoluble glucan was calculated using the following formula: […]
formation ratio (%) of insoluble glucan=(SS-SB).div.(CS-CB)×100 wherein SS: absorbance of sample, SB: absorbance of blank for sample (the blank contained no enzyme), CS: absorbance of control (containing no sample), and CB: absorbance of blank for control (the blank contained no sample and no enzyme).

hyaluronidase = target: T3, hyaluronidase (Bos taurus, UniProt Q2YDK3); test: Test for hyaluronidase-inhibiting activity (commercial hyaluronidase activated with compound 48/80); type: biochemical; settings: FIG. 16
T3 construct: purchased
T3 sequence (Q2YDK3 36-553): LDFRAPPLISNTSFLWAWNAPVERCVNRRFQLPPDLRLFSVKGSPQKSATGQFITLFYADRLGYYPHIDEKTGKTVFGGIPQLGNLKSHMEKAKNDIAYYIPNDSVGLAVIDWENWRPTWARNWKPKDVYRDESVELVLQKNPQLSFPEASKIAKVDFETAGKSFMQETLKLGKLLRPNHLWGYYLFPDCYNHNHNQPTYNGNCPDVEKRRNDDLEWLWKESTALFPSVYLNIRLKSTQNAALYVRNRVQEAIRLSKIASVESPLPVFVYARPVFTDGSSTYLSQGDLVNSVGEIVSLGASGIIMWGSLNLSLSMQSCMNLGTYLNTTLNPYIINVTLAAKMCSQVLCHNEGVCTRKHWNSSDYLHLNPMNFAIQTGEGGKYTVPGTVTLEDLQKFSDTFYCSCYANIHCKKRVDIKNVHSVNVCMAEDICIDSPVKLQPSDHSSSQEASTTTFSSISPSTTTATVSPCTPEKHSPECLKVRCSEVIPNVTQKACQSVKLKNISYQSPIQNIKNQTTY
Description: That is, a sample solution was added to a commercial hyaluronidase solution, and preincubation was conducted. […] Then, a hyaluronic acid solution was added as a substrate, and a reaction was allowed to take place.
The N-acetylglucosamine produced by the above reaction was subjected to the Elson-Morgan's procedure to develop a color. […] Hyaluronidase-inhibiting activity (%) was calculated using the following formula:
(%)={(C-CB)-(S-SB)}.div.(C-CB)×100
wherein S: absorbance of test solution,
C: absorbance of control wherein a buffer solution is used in place of the sample,
SB : absorbance of blank for S (the blank contained no enzyme), and
CB : absorbance of blank for C (the blank contained no sample and no enzyme).

T1 sequence (P12821 30-1306, species assumed): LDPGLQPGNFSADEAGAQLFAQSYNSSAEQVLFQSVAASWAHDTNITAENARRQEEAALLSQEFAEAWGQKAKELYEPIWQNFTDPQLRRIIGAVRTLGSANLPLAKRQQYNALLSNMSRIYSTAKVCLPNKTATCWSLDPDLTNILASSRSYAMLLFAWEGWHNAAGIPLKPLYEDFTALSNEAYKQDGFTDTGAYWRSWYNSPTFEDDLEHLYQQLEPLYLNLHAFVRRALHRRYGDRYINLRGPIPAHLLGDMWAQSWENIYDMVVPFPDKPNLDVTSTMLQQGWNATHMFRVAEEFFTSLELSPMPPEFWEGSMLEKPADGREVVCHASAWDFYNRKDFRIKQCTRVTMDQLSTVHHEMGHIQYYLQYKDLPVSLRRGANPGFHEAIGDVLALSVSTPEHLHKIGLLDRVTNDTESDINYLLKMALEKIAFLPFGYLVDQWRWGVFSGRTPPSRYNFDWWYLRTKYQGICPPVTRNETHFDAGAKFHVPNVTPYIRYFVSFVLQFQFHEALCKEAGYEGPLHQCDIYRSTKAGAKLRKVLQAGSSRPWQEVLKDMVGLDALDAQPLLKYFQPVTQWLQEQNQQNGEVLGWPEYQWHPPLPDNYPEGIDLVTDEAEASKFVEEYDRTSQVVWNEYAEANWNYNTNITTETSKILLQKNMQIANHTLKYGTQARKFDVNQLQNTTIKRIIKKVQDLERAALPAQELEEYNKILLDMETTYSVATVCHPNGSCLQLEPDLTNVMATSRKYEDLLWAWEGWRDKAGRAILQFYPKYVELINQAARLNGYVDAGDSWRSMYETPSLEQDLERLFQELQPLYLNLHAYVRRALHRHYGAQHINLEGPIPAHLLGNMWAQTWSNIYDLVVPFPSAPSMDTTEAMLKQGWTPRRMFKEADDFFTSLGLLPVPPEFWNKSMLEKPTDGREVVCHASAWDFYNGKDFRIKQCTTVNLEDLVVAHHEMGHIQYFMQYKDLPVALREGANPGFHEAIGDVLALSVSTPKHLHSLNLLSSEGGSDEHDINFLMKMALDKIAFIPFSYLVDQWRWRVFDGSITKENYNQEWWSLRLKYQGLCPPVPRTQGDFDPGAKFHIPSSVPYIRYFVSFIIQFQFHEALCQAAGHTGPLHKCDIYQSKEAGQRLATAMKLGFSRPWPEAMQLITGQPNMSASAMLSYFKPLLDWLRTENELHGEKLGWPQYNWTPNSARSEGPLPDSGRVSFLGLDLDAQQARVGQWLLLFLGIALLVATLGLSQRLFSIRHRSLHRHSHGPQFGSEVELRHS
T2 sequence (P27470 39-1592): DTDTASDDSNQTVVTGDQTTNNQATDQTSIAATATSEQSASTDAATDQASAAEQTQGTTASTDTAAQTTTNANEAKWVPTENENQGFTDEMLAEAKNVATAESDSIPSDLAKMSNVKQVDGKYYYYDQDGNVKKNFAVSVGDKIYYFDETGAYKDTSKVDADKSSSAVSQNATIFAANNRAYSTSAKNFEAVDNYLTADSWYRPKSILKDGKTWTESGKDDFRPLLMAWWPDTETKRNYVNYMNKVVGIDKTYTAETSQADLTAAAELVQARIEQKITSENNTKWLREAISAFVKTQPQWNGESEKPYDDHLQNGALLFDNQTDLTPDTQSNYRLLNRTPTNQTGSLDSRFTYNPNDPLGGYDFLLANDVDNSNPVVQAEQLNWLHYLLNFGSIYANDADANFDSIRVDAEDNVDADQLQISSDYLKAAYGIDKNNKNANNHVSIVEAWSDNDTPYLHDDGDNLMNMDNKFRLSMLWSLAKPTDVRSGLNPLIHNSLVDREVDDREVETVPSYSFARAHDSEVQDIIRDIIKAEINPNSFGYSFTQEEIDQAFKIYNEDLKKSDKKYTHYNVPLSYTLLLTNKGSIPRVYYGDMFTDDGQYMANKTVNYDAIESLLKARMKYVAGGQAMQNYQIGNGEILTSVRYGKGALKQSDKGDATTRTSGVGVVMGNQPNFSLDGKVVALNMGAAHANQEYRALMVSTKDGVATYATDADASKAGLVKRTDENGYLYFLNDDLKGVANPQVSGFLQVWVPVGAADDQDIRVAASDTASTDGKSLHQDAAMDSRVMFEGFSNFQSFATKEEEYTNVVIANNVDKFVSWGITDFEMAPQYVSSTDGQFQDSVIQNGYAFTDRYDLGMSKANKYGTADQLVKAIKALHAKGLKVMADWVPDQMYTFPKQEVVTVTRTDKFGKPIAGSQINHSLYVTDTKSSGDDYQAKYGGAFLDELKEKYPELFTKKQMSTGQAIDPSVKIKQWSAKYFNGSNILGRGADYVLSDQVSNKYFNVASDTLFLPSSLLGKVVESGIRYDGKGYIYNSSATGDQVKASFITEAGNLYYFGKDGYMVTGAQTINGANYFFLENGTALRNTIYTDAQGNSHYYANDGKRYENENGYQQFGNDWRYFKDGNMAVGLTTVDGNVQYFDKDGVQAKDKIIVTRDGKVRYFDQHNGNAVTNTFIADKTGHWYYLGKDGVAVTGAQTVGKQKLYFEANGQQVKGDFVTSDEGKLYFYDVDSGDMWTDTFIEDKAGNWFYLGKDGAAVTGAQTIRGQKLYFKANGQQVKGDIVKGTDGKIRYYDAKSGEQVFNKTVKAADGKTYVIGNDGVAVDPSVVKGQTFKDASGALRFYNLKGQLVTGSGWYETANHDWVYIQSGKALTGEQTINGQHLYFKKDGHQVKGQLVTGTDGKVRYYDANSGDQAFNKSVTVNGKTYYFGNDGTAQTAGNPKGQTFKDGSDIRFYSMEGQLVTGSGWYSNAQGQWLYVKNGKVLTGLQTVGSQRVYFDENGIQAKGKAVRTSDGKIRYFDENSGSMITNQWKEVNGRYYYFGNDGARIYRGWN

Oc1cc(O)c2c(c1)O[C@H](c1ccc(O)c(O)c1)[C@@H](O)C2 [(+)-catechin]
antioxidative activity (amount of peroxylipid formed, absorbance at 500 nm) [1]: antioxidative activities equivalent to those of BHA and BHT

O=C(O[C@@H]1Cc2c(O)cc(O)cc2O[C@@H]1c1cc(O)c(O)c(O)c1)c1cc(O)c(O)c(O)c1 [EGCg, (-)-epigallocatechin gallate]
amount showing 50% antimutagenic activity to Trp-P-2 ([2]; 1 μg of Trp-P-2, FIG. 13): about 51 μg
amount showing 50% antimutagenic activity to benzo[a]pyrene ([2]; 5 μg of benzo[a]pyrene, FIG. 14): about 56 μg
IC50 [3]: 300 µM

O=C(O)/C=C/c1ccc(O)c(O)c1 [caffeic acid]
antioxidative activity (amount of peroxylipid formed, absorbance at 500 nm) [1]: antioxidative activities equivalent to those of BHA and BHT

Oc1cc(O)c2c(c1)O[C@H](c1ccc(O)c(O)c1)[C@H](O)C2 [(-)-epicatechin]
antioxidative activity (amount of peroxylipid formed, absorbance at 500 nm) [1]: antioxidative activities equivalent to those of BHA and BHT
GTase-inhibiting activity (in words) [4]: very low GTase-inhibiting activity

O=C(/C=C/c1ccc(O)c(O)c1)O[C@@H]1C[C@](O)(C(=O)O)C[C@@H](O)[C@H]1O [chlorogenic acid]
GTase-inhibiting activity (in words) [4]: very low GTase-inhibiting activity

O=C(CCc1ccc(O)cc1)c1c(O)cc(O)cc1O [phloretin]
antioxidative activity (amount of peroxylipid formed, absorbance at 500 nm) [1]: no antioxidative activity

O=C(CCc1ccc(O)cc1)c1c(O)cc(O)cc1O[C@@H]1O[C@H](CO)[C@@H](O)[C@H](O)[C@H]1O [phloridzin]
antioxidative activity (amount of peroxylipid formed, absorbance at 500 nm) [1]: no antioxidative activity
GTase-inhibiting activity (in words) [4]: very low GTase-inhibiting activity

O=C(O)c1cc(=O)c2c(OCC(O)COc3cccc4oc(C(=O)O)cc(=O)c34)cccc2o1 [sodium cromoglicate]
IC50 (hyaluronidase): ~109 µM

O=C(O[C@@H]1Cc2c(O)cc(O)cc2O[C@@H]1c1ccc(O)c(O)c1)c1cc(O)c(O)c(O)c1 [ECg, (-)-epicatechin gallate]
IC50 ([3]; pure polyphenol compounds, FIG. 9, read-out: IC50 to ACE): 2000 µM
IC50 [4]: ~452 µM

O=C(O)/C=C/c1ccc(O)cc1 [p-coumaric acid]
antioxidative activity (amount of peroxylipid formed, absorbance at 500 nm) [1]: no antioxidative activity

NCCCC(=O)O [GABA, γ-aminobutyric acid]
ACE-inhibiting activity (in words) [3]: no ACE-inhibiting activity

C[C@@H]1O[C@@H](OC[C@H]2O[C@@H](Oc3c(-c4ccc(O)c(O)c4)oc4cc(O)cc(O)c4c3=O)[C@H](O)[C@@H](O)[C@@H]2O)[C@H](O)[C@H](O)[C@H]1O [rutin]
antioxidative activity (amount of peroxylipid formed, absorbance at 500 nm) [1]: antioxidative activities equivalent to those of BHA and BHT

O=c1c(O)c(-c2ccc(O)c(O)c2)oc2cc(O)cc(O)c12 [quercetin]
antioxidative activity (amount of peroxylipid formed, absorbance at 500 nm) [1]: antioxidative activities equivalent to those of BHA and BHT
